Measured values published in US20260007681A1, “INDOLE DERIVATIVES AS ESTROGEN RECEPTOR DEGRADERS” (REGENTS OF THE UNIVERSITY OF MICHIGAN, priority 2022, published 2026).
Like-named read-outs stand apart in the source and are kept apart here.

Columns and labels:
[1] = target: CRBN/DDB1 (Homo sapiens (Human), UniProt Q96SW2); type: binding; conditions: His tagged CRBN+DDB-DLS7+CXU4, Cy5-labeled Thalidomide probe, one hour incubation; read-out: CRBN HTRF IC50
Method: The binding potency was determined using H-TRF assay technology (Perkin Elmer). Compounds were serially diluted in DMSO and 0.2 μL volume was transferred to white 384-well plate.

[2] = target: ERα_LBD(GST) (Homo sapiens (Human), UniProt P03372); experiment: IC50 measurements for binding to ERα_LBD (GST), LanthaScreen TR-FRET ERα competitive binding assay; conditions: 4 nM ERα_LBD(GST), 3 nM Fluormone ES2 Green tracer, 60 min; read-out: ERα HTRF IC50
Method: • 1. ERα_LBD(GST) protein: 4 nM • 2. Tb Anti-GST: 2 nM • 3. Fluormone ES2 Green tracer: 3 nM • 4. Incubation time: 60 min • 5. DMSO: 1% • 6. Assay buffer: Adding 1M DTT to Nuclear receptor Buffer K for final 5 mM DTT. • 7. ZPE: 1% DMSO • 8. HPE: 1 μM ARV_471 • 9. LanthaScreen® TR-FRET ERα Competitive Binding Assay (ThermoFisher, #A15887)
• 1) Cherry pick 2 μL 10 mM compound stock to column 1 of a 384 intermediate plate • 2) Add 18 μL DMSO to column 1 to dilute compound to 1 mM. • 3) Transfer 10 μL 1 mM compound to column 1 of a LDV plate. • 4) Add 6 μl DMSO to column 2-10 of the LDV plate. • 5) Compounds undergo 3-fold serial dilution (3 μL+6 μL) in DMSO. • 6) Transfer 120 nL compound solution to assay plate. • ZPE: 120 nL 100% DMSO
Prepare complete nuclear receptor buffer K by adding 1 M DTT to nuclear receptor buffer K for a final concentration of 5 mM DTT. Complete nuclear receptor buffer K must be prepared fresh daily. Prepare 2X protein solution using complete nuclear receptor buffer K containing 8 nM ERα_LBD(GST) and 4 nM Tb Anti-GST. Then, prepare 2× Fluormone ES2 Green tracer (6 nM) using complete nuclear receptor buffer K. Add 6 μL 2× Fluormone ES2 green tracer into a compound plate (PerkinElmer 6008289) by dragonfly with one-tips-addition. Subsequently, add 6 μL 2× protein solution into the plate. Briefly and gently mix the 384-well plate on a plate shaker and incubate at room temperature protected from light for 60 min. The plate is sealed with a cover to minimize evaporation. Read the plate at wavelengths of 520 nm and 495 nm. Calculate the TR-FRET ratio by dividing the emission signal at 520 nm by the emission signal at 495 nm. Generate a binding curve by plotting the emission ratio vs. the log [ligand]. To determine the IC50 value, fit the data using XL-fit for a sigmoidal dose-response.

[3] = target: ER in MCF-7 cells (Homo sapiens (Human), UniProt P03372); experiment: In-cell western (ICW) ER degradation assay in MCF-7 cells (Compounds A1-A70); type: cell-based; conditions: MCF-7 cells, 16 hrs treatment; for DC50: ER degradation, 0.02 to 300 nM, read-out: MCF7 ICW DC50; for MCF7 ICW Dmax (%): maximal ER degradation; for Dmax: MCF7, maximal ER degradation, read-out: MCF7 ICW Dmax (%)
[4] = target: ER in T47D cells (Homo sapiens (Human), UniProt P03372); experiment: In-cell western (ICW) ER degradation assay in T47D cells (Compounds A1-A70); type: cell-based; conditions: T47D cells, 16 hrs treatment; for DC50: ER degradation, 0.02 to 300 nM; for T47D ICW Dmax (%) / Dmax: maximal ER degradation; for Dmax: read-out: T47D ICW Dmax (%)
Sequence of ER in T47D cells (P03372 whole entry): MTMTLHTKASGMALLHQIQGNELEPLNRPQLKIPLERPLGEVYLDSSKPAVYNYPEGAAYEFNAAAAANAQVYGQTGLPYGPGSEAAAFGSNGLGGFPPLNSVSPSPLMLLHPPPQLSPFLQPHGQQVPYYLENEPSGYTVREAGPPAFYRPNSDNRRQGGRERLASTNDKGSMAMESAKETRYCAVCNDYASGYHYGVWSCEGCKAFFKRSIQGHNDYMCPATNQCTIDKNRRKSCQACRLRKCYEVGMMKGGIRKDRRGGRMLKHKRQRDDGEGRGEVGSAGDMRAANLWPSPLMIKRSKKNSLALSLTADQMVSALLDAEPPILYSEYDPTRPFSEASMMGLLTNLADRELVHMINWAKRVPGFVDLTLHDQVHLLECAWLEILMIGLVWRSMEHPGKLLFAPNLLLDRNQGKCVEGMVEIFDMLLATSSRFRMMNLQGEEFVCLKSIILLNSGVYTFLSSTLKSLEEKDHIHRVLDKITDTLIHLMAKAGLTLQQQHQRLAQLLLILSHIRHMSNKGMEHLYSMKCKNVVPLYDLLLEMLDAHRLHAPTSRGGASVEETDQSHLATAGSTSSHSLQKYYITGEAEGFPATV

Sequence of ERα_LBD(GST) (P03372 311-547): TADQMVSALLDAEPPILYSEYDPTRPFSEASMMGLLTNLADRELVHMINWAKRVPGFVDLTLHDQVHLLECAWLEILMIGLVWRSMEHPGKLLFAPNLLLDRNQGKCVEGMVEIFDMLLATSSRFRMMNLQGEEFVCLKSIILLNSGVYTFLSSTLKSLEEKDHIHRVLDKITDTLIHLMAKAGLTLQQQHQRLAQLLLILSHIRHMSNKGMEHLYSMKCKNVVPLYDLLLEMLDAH
Sequence of CRBN/DDB1 (Q96SW2 whole entry): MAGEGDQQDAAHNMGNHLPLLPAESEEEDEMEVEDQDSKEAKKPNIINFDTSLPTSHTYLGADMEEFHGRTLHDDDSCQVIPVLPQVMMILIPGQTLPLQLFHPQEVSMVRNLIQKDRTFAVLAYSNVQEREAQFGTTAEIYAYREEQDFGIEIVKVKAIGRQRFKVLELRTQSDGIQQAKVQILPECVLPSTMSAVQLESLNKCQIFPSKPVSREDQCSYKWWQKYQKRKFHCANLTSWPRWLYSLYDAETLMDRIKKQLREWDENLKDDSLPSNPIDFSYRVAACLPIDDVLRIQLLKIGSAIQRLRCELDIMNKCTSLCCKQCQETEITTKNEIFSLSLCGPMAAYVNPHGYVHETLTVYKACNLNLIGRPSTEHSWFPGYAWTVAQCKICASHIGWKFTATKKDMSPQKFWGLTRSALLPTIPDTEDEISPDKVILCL
Sequence of CRBN/DDB1 (Q16531 whole entry partner): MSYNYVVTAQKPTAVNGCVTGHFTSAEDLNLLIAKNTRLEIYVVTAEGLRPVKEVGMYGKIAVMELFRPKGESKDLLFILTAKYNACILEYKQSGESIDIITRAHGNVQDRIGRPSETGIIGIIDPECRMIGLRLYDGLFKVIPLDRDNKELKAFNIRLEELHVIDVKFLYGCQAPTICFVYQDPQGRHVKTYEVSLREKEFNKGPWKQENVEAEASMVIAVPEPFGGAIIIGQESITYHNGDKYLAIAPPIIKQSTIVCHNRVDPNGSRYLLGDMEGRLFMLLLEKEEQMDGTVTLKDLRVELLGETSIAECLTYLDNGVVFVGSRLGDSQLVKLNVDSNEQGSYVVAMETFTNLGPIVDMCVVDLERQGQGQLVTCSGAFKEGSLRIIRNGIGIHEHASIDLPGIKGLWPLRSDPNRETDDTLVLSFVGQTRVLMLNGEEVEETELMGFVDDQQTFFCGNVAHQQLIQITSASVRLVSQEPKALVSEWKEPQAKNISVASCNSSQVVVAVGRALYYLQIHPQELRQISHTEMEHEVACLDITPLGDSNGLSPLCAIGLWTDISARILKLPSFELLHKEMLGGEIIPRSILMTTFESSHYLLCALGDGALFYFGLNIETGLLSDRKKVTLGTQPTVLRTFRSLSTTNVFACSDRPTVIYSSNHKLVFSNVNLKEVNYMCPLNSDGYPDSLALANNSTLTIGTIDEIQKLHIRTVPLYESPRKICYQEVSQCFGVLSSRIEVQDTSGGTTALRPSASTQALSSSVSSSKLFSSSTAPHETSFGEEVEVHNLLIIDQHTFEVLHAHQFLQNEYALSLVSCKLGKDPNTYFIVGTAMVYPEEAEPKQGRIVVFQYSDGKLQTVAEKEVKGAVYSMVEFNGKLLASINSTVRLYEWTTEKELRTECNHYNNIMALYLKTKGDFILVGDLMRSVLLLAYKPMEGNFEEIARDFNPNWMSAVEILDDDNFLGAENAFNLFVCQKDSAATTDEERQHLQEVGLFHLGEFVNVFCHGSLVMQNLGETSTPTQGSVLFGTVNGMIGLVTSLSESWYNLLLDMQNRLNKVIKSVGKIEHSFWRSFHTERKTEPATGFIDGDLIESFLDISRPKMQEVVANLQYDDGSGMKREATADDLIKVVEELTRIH
Sequence of ER in MCF-7 cells (P03372 whole entry): as the sequence (P03372 whole entry) above

SMILES | IC50 [1] [nM] | IC50 [2] [nM] | DC50 [3] [nM] | MCF7 ICW Dmax (%) [3] | DC50 [4] [nM] | T47D ICW Dmax (%) [4] | Dmax [3] [%] | Dmax ([4]; T47D) [%] | Dmax [4] [%]
COc1cc(N2CCC(CN3CCN4c5cc6c(cc5OC[C@@H]4C3)C(=O)N([C@H]3CCC(=O)NC3=O)C6)CC2)ccc1[C@@H]1c2[nH]c3ccccc3c2C[C@@H](C)N1CC(F)F [Compound A28, (S)-3-((S)-3-((1-(4-((1R,3R)-2-(2,2-difluoroethyl)-3-methyl-2,3,4,9-tetrahydro-1H-pyrido[3,4-b]indol-1-yl)-3-methoxyphenyl)piperidin-4-yl)methyl)-8-oxo-1,2,3,4,4a,5,8,10-octahydro-9H-pyrazino[1′,2′:4,5][1,4]oxazino[2,3-f]isoindol-9-yl)piperidine-2,6-dione] | 50 to 500 | < 10 | < 1 | C (“C”: 25%-50%) | < 1 | B (“B”: >50% and <75%) |  |  | 
C[C@H]1Cc2c([nH]c3ccccc23)[C@H](c2cnc(N3CCC4(CC3)C[C@H](CN3CCN5c6cc7c(cc6OC[C@@H]5C3)C(=O)N([C@@H]3CCC(=O)NC3=O)C7)CO4)nc2)N1CC(F)F [Compound A69, (R)-3-((S)-3-(((R)-8-(5-((1S,3S)-2-(2,2-difluoroethyl)-3-methyl-2,3,4,9-tetrahydro-1H-pyrido[3,4-b]indol-1-yl)pyrimidin-2-yl)-1-oxa-8-azaspiro[4.5]decan-3-yl)methyl)-8-oxo-1,2,3,4,4a,5,8,10-octahydro-9H-pyrazino[1′,2′:4,5][1,4]oxazino[2,3-f]isoindol-9-yl)piperidine-2,6-dione] | 50 to 500 | ≥ 10 | < 1 |  | < 1 |  | > 75 | > 75 | 
COc1cc(N2CCC(CN3CCN4c5ccc6c(c5OC[C@@H]4C3)CN([C@H]3CCC(=O)NC3=O)C6=O)CC2)ccc1[C@@H]1c2[nH]c3ccccc3c2C[C@@H](C)N1CC(F)F [Compound A45, (S)-3-((S)-7-((1-(4-((1R,3R)-2-(2,2-difluoroethyl)-3-methyl-2,3,4,9-tetrahydro-1H-pyrido[3,4-b]indol-1-yl)-3-methoxyphenyl)piperidin-4-yl)methyl)-1-oxo-1,3,5,5a,6,7,8,9-octahydro-2H-pyrazino[1′,2′:4,5][1,4]oxazino[2,3-e]isoindol-2-yl)piperidine-2,6-dione] | > 5000 | < 10 | < 1 | A (“A”: >=75%) | < 1 |  |  | > 75 | 
COc1cc(N2CCC(CN3CCN4c5cc6c(cc5OC[C@@H]4C3)C(=O)N([C@H]3CCC(=O)NC3=O)C6)CC2)ccc1[C@@H]1c2[nH]c3ccccc3c2C[C@@H](C)N1CC(F)F [Compound A29, (S)-3-((S)-3-((1-(4-((1R,3R)-2-(2,2-difluoroethyl)-3-methyl-2,3,4,9-tetrahydro-1H-pyrido[3,4-b]indol-1-yl)-3-methoxyphenyl)piperidin-4-yl)methyl)-8-oxo-1,2,3,4,4a,5,8,10-octahydro-9H-pyrazino[1′,2′:4,5][1,4]oxazino[2,3-f]isoindol-9-yl)piperidine-2,6-dione] | 500 to 5000 | < 10 | < 1 | B (“B”: >50% and <75%) | < 1 | A (“A”: >=75%) |  |  | 
C[C@@H]1Cc2c([nH]c3ccccc23)[C@@H](c2cnc(N3CCC(CN4CCC5(CC4)COc4cc6c(cc45)CN(C4CCC(=O)NC4=O)C6=O)CC3)nc2)N1CC(F)(F)CO (stereo partly drawn) [Compound A36, 3-(1′-((1-(5-((1R,3R)-2-(2,2-difluoro-3-hydroxypropyl)-3-methyl-2,3,4,9-tetrahydro-1H-pyrido[3,4-b]indol-1-yl)pyrimidin-2-yl)piperidin-4-yl)methyl)-7-oxo-5,7-dihydro-2H,6H-spiro[furo[2,3-f]isoindole-3,4′-piperidin]-6-yl) piperidine-2,6-dione] | 50 to 500 | < 10 | 1 to 10 |  | < 1 |  | 25 to 50 |  | 50 to 75
